The subject of assay [1] is ubiquityl-MDM2 in SJSA-1 osteosarcoma cells. Nature of the assay: Cellular ubiquityl-MDM2 assay (MSD Ub/Total MDM2). Type of assay: cell-based. Conditions: Homo sapiens; SJSA-1 cells, low serum conditions; read-out: increase in ubiquityl-MDM2 (EC50). As to the method: HCT116 colon cancer cells or SJSA-1 osteosarcoma cells were seeded at a density of 150,000 cell per well in 90 ml (RPMI 1640 media, 10% FBS, 1× GlutaMAX™, Gibco) in 96-well black clear bottom, TC-treated (Greiner, Cat#655090), and incubated for 2 hours at 37° C., 5% CO2 in a tissue culture incubator. Compounds were prepared in a serial dilution in DMSO at 200× the final desired concentration in a 96-well polypropylene V-bottom (Greiner, Cat#651261), then diluted 1:20 in RPMI tissue culture medium and 10 ml transferred to each well of the cell plate. Cell plates were incubated overnight for 20 hours, 37° C., 5% CO2. 20 ml of a […] stock (in RPMI) of the proteasome inhibitor, MG132 (Cayman Chemical, Cat#10012628), was added to each well. Cells were incubated for 1 hour at 37° C., 5% CO2. Quantitation of ubiquityl-MDM2 was carried out using Ub/Total MDM2 whole cell lysate kit (MSD, Cat#K15168D-2). […] MSD read buffer was prepared according to manufacturer's instructions and 150 ml added per well. Plates were read using a MSD Sector Reader. […] Percentage increase in ubiquityl-MDM2 was calculated relative to DMSO controls using Genedata Screener software.

Assay [2] deals with p53, p21, MDM2 and E6AP in RKO, RKO-E6, Vibo and SiHA cell lines. Kind of assay: Western blot in RKO, RKO-E6, Vibo and SiHA cells (FIG. 14A). It is filed as cell-based. As to the method:
In 24-well plates, 0.10-0.15×10^6 (adherent) or 0.5×10^6 (suspension) cells were treated with 15 μM or 2.5 μM compounds, respectively, for 24 h in low serum prior to lysis for Western Blot analysis.
For orientation: In western blotting, separated proteins are transferred to a membrane and probed.

Assay [3] relates to HCT116 cells (wild type and USP7 null). Kind of assay: CellTitre-Glo cell viability, HCT116 wild type and USP7 null (FIG. 4). Type of assay: cell-based, Human. Conditions: HCT116 wild type versus USP7 null. As for the experimental part:
2,500-5,000 cells were seeded in 1-well of a 96-well plate (Corning; 3904). The following day, the media was changed from normal (10%) to low serum (0.5%) containing vehicle (DMSO) or compounds. 16-24 h later FBS was added to each well to bring serum levels back to normal (10%). Cells were then allowed to grow for 2 days. All treatments were done in triplicate.
Seventy two hours after compounds were added, CellTitre Glo (CTG) reagent was added following the protocol provided by the manufacturer (Promega). In the experiment to test compound dependency on USP7, 3× more USP7 null cells were plated per well (7,500 vs. 2,500 for wild-type (WT) cells), given the slower proliferation of USP7 null cells. For the multiple myeloma experiment, cells seeded in low serum and treated with compounds immediately. Twenty four hours later, serum was added back to normal levels. CTG assay was done 24 h later i.e. 48 h after compounds were added instead of 72 hrs later for the adherent cells.

In assay [4] the target is USP7 catalytic domain (Homo sapiens, UniProt Q93009). Kind of assay: Ub-Rho110 DUB assay, Table 2, USP7 catalytic domain. It is filed as biochemical. Conditions: read-out: Ub-Rho110 IC50, USP7 cat.
Experimental: Biochemical USP7 assays using Ubiquitin-Rho110 as a substrate: The final assay conditions were as follows: The Reaction Buffer consisted of: 50 mM Tris (pH 7.5), 0.01% (v/v) Triton X-100, 2.5 mM Dithiothreitol, 0.1% (w/v) bovine gamma globulin (Sigma cat #G5009-25G); USP7, full-length, native C-Terminus, 0.2 nM; the substrate, Ubiquitin-Rho110 (Boston Biochem cat #U-555), 1 uM. Reactions were carried out for 1 hour at room temperature, in black 20 μL volume polystyrene ProxiPlate 384 F Plus® (PerkinElmer cat #6008260).
Test compounds, including a control USP7 inhibitor (Ub-aldehyde, Boston Biochem cat #U-201) were serially diluted in DMSO, in 384 well clear V-bottom polypropylene plates (Greiner cat #781280). Compounds in DMSO were diluted 10-fold into Reaction Buffer, to achieve 3-fold the final desired concentration. The substrate, Ubiquitin-Rho110 (Boston Biochem cat #U-555), was prepared at 3 μM (3-fold the final concentration) and 5 ul was dispensed into the reaction plate. 5 ul of the compounds (diluted in Reaction Buffer at 3-fold the final concentration) were transferred to the reaction plate. 5 ul of 0.6 nM USP7 (diluted in Reaction Buffer at 3-fold the final concentration) was transferred to the reaction plate to initiate the reaction. After 1 hour incubation at room temperature the reaction was quenched by the addition of 5 ul of 400 mM acetic acid. The enzymatic product was measured by quantifying the fluorescence signal of cleaved Rhodamine-110 using excitation at 485 nm and emission at 535 nm. When pre-incubation of USP7 with compounds was required, the order of addition of reagents was modified to pre-mix the compounds with USP7 (with a 1 hour incubation period), prior to the addition of the substrate and the initiation of the reaction period. Percentage inhibition values were calculated relative to a no enzyme control and a uninhibited enzyme control. Curve fitting and IC50 calculations were carried out using Genedata Screener software.
The test system of assay [5] is MDM2 in MCF7 breast cancer cells. Kind of assay: MDM2 turnover in MCF7 cells with cycloheximide (FIG. 3A). It is filed as cell-based. Conditions: 15 μM, in the presence of cycloheximide (CHX). As to the method: In 24-well plates, 0.15×10^6 MCF-7 cells were treated for a total of 8 h with DMSO or compounds (15 μM). During that 8 h, cycloheximide (CHX) was added for the indicated times prior to harvest.

Sequence of USP7 catalytic domain (Q93009 214-521 limits assumed): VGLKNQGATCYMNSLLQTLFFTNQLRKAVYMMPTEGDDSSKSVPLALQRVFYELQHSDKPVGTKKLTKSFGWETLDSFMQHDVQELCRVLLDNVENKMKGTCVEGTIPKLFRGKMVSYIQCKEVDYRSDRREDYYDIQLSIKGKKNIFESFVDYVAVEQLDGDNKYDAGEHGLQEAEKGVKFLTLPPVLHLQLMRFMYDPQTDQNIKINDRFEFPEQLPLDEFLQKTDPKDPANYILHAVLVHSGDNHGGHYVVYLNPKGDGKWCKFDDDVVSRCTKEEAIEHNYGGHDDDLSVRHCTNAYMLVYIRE

One may read the EC50 as the concentration needed to bring the measured effect to its halfway point. The term IC50 denotes the midpoint of a concentration-inhibition curve. Consider `CCc1c(-c2ccc3[nH]ncc3c2)cnc(N)c1-c1ccc(O)cc1` [Compound 88, 4-[2-amino-4-ethyl-5-(1H-indazol-5-yl)-3-pyridyl]phenol], for which the EC50 in assay [1] worked out at 2000 nM. Moreover, the “effect on p53, p21, MDM2 and E6AP (western blot)” value in assay [2] is “stabilize p53, p21, and destabilize MDM2 and E6AP”. Besides, in assay [3], the cell viability result is listed as “USP7-dependent decrease in viability”. For the same molecule, the IC50 in assay [4] worked out at 430 nM. Also, the “destabilizing effect on MDM2 (western blot)” value in assay [5] is “destabilizing effects”.

The values above are taken from patent US9573899B2, “USP7 inhibitor compounds and methods of use” (Genentech, Inc., priority 2015, dated 2017).
